ChEMBL document CHEMBL1150654, “New marine diterpenoids from the Okinawan soft coral Clavularia koellikeri” (J Nat Prod, 2002)
Converted amounts (≈) assume the structure as drawn.

Key:
Assay type in all cases: functional, cell-based
[1] = Cytotoxicity against human HBC4 cells after 48 hrs by sulforhodamine B assay; conditions: HBC4, 48 h
[2] = Cytotoxicity against human BSY1 cells after 48 hrs by sulforhodamine B assay; conditions: BSY-1, 48 h
[3] = Cytotoxicity against human HBC5 cells after 48 hrs by sulforhodamine B assay; conditions: HBC5, 48 h
MCF7 = experiment: Cytotoxicity against human MCF7 cells after 48 hrs by sulforhodamine B assay; conditions: MCF7, 48 h
MDA-MB-231 = experiment: Cytotoxicity against human MDA-MB-231 cells after 48 hrs by sulforhodamine B assay; conditions: MDA-MB-231, 48 h
NCI-H23 = experiment: Cytotoxicity against human NCI-H23 cells after 48 hrs by sulforhodamine B assay; conditions: NCI-H23, 48 h
NCI-H226 = experiment: Cytotoxicity against human NCI-H226 cells after 48 hrs by sulforhodamine B assay; conditions: NCI-H226, 48 h
NCI-H522 = experiment: Cytotoxicity against human NCI-H522 cells after 48 hrs by sulforhodamine B assay; conditions: NCI-H522, 48 h
NCI-H460 = experiment: Cytotoxicity against human NCI-H460 cells after 48 hrs by sulforhodamine B assay; conditions: NCI-H460, 48 h
A549 = experiment: Cytotoxicity against human A549 cells after 48 hrs by sulforhodamine B assay; conditions: A549, 48 h
DMS-273 = experiment: Cytotoxicity against human DMS273 cells after 48 hrs by sulforhodamine B assay; conditions: DMS-273, 48 h
DMS-114 = experiment: Cytotoxicity against human DMS114 cells after 48 hrs by sulforhodamine B assay; conditions: DMS-114, 48 h
LOX IMVI = experiment: Cytotoxicity against human LOXIMVI cells after 48 hrs by sulforhodamine B assay
St-4 = experiment: Cytotoxicity against human St-4 cells after 48 hrs by sulforhodamine B assay; conditions: St-4, 48 h
[4] = Cytotoxicity against human MKN1 cells after 48 hrs by sulforhodamine B assay; conditions: MKN-1, 48 h
MKN-7 = experiment: Cytotoxicity against human MKN7 cells after 48 hrs by sulforhodamine B assay; conditions: MKN-7, 48 h
MKN-28 = experiment: Cytotoxicity against human MKN28 cells after 48 hrs by sulforhodamine B assay; conditions: MKN-28, 48 h
MKN-45 = experiment: Cytotoxicity against human MKN45 cells after 48 hrs by sulforhodamine B assay; conditions: MKN-45, 48 h
MKN-74 = experiment: Cytotoxicity against human MKN74 cells after 48 hrs by sulforhodamine B assay; conditions: MKN-74, 48 h
HCC 2998 = experiment: Cytotoxicity against human HCC2998 cells after 48 hrs by sulforhodamine B assay; conditions: HCC 2998, 48 h
KM12 = experiment: Cytotoxicity against human KM12 cells after 48 hrs by sulforhodamine B assay; conditions: KM12, 48 h
HT-29 = experiment: Cytotoxicity against human HT-29 cells after 48 hrs by sulforhodamine B assay; conditions: HT-29, 48 h
HCT-15 = experiment: Cytotoxicity against human HCT15 cells after 48 hrs by sulforhodamine B assay; conditions: HCT-15, 48 h
HCT-116 = experiment: Cytotoxicity against human HCT116 cells after 48 hrs by sulforhodamine B assay; conditions: HCT-116, 48 h
[5] = Cytotoxicity against human RXF631L cells after 48 hrs by sulforhodamine B assay; conditions: RXF 631, 48 h
ACHN = experiment: Cytotoxicity against human ACHN cells after 48 hrs by sulforhodamine B assay
OVCAR-3 = experiment: Cytotoxicity against human OVCAR-3 cells after 48 hrs by sulforhodamine B assay; conditions: OVCAR-3, 48 h
OVCAR-4 = experiment: Cytotoxicity against human OVCAR4 cells after 48 hrs by sulforhodamine B assay; conditions: OVCAR-4, 48 h
OVCAR-5 = experiment: Cytotoxicity against human OVCAR5 cells after 48 hrs by sulforhodamine B assay; conditions: OVCAR-5, 48 h
OVCAR-8 = experiment: Cytotoxicity against human OVCAR8 cells after 48 hrs by sulforhodamine B assay; conditions: OVCAR-8, 48 h
SK-OV-3 = experiment: Cytotoxicity against human SKOV3 cells after 48 hrs by sulforhodamine B assay; conditions: SK-OV-3, 48 h
U-251 = experiment: Cytotoxicity against human U251 cells after 48 hrs by sulforhodamine B assay; conditions: U-251, 48 h
SF-268 = experiment: Cytotoxicity against human SF268 cells after 48 hrs by sulforhodamine B assay; conditions: SF-268, 48 h
SF-295 = experiment: Cytotoxicity against human SF295 cells after 48 hrs by sulforhodamine B assay; conditions: SF-295, 48 h
SF-539 = experiment: Cytotoxicity against human SF539 cells after 48 hrs by sulforhodamine B assay; conditions: SF-539, 48 h
SNB-75 = experiment: Cytotoxicity against human SNB75 cells after 48 hrs by sulforhodamine B assay; conditions: SNB-75, 48 h
SNB-78 = experiment: Cytotoxicity against human SNB78 cells after 48 hrs by sulforhodamine B assay; conditions: SNB-78, 48 h
DU-145 = experiment: Cytotoxicity against human DU145 cells after 48 hrs by sulforhodamine B assay; conditions: DU-145, 48 h
PC-3 = experiment: Cytotoxicity against human PC3 cells after 48 hrs by sulforhodamine B assay; conditions: PC-3, 48 h

C=C1C(=O)O[C@H]2/C=C(\C)CC/C=C(\C)CC/C=C(\C)CC[C@H]12
IC50 [1]: 1.62 mg/L (≈ 5.39 µM) | IC50 [2]: 1.35 mg/L (≈ 4.49 µM) | IC50 [3]: 2.13 mg/L (≈ 7.09 µM) | IC50 (MCF7): 0.9 mg/L (≈ 3 µM) | IC50 (MDA-MB-231): 4.5 mg/L (≈ 15 µM) | IC50 (NCI-H23): 3.6 mg/L (≈ 12 µM) | IC50 (NCI-H226): 1.14 mg/L (≈ 3.79 µM) | IC50 (NCI-H522): 0.66 mg/L (≈ 2.2 µM) | IC50 (NCI-H460): 3.3 mg/L (≈ 11 µM) | IC50 (A549): 1.26 mg/L (≈ 4.19 µM) | IC50 (DMS-273): 1.11 mg/L (≈ 3.69 µM) | IC50 (DMS-114): 3.6 mg/L (≈ 12 µM) | IC50 (LOX IMVI): 0.72 mg/L (≈ 2.4 µM) | IC50 (St-4): 3.9 mg/L (≈ 13 µM) | IC50 [4]: 1.2 mg/L (≈ 3.99 µM) | IC50 (MKN-7): 0.96 mg/L (≈ 3.2 µM) | IC50 (MKN-28): 0.96 mg/L (≈ 3.2 µM) | IC50 (MKN-45): 3 mg/L (≈ 9.99 µM) | IC50 (MKN-74): 0.81 mg/L (≈ 2.7 µM) | IC50 (HCC 2998): 1.29 mg/L (≈ 4.29 µM) | IC50 (KM12): 1.32 mg/L (≈ 4.39 µM) | IC50 (HT-29): 1.47 mg/L (≈ 4.89 µM) | IC50 (HCT-15): 2.01 mg/L (≈ 6.69 µM) | IC50 (HCT-116): 1.17 mg/L (≈ 3.89 µM) | IC50 [5]: 4.8 mg/L (≈ 16 µM) | IC50 (ACHN): 3 mg/L (≈ 9.99 µM) | IC50 (OVCAR-3): 1.14 mg/L (≈ 3.79 µM) | IC50 (OVCAR-4): 2.25 mg/L (≈ 7.49 µM) | IC50 (OVCAR-5): 2.31 mg/L (≈ 7.69 µM) | IC50 (OVCAR-8): 0.93 mg/L (≈ 3.1 µM) | IC50 (SK-OV-3): 6.6 mg/L (≈ 22 µM) | IC50 (U-251): 4.2 mg/L (≈ 14 µM) | IC50 (SF-268): 3 mg/L (≈ 9.99 µM) | IC50 (SF-295): 3.9 mg/L (≈ 13 µM) | IC50 (SF-539): 1.56 mg/L (≈ 5.19 µM) | IC50 (SNB-75): 3.3 mg/L (≈ 11 µM) | IC50 (SNB-78): 1.59 mg/L (≈ 5.29 µM) | IC50 (DU-145): 3.3 mg/L (≈ 11 µM) | IC50 (PC-3): 1.11 mg/L (≈ 3.69 µM)
